Drawing on PubChem BioAssay AID493240 (Broad Institute, 2011), this text covers AC50 for 96 compounds.

The test system of the test is SK-MEL-5 viability, ATP luminescence (CellTiter-Glo), 24 h. Briefly: cytotoxicity in parental SK-MEL-5 melanoma cells – cell-based, CellTiter-Glo, cherry-picked, set 3, orthogonal assay for MITF inhibitor project, dose response (AID 493240).
With `CC1=NNC(=O)/C1=C\c1cn(-c2ccccc2)nc1-c1ccc(F)cc1`, the AC50 – broadly, the concentration giving half of the maximal activity seen – was 15.5 µM.

As for `COc1ccc(Oc2cc(NC(=O)c3nn(C)cc3[N+](=O)[O-])cc([N+](=O)[O-])c2)cc1`, the AC50 was 30.4 µM.

With `CC(=O)N1CCc2c(sc(NC(=O)c3ccc([N+](=O)[O-])o3)c2C#N)C1`, the AC50 was 17.2 µM.

Consider `O=[N+]([O-])c1ccc(S(=O)(=O)CC(CN2CCCCC2)N2CCCCC2)cc1` (stereo unspecified), for which the AC50 was 29.8 µM.

Turning to `O=C(N/N=C/c1ccc([N+](=O)[O-])o1)c1ccc(O)cc1`, the half-maximal activity concentration (AC50) was 16.7 µM.

In the case of `CC[n+]1c(/C=C/N(C)c2ccccc2)sc2ccc(Cl)cc21`, the AC50 is 19.8 µM.

As for `Cc1ccc(C(C)C)c(OCc2nn(CC(=O)c3ccc(OC(F)F)cc3)c3[n+]2CCCCC3)c1`, the AC50 was 20.2 µM.

For `N#C/C(=C(/O)c1ccc([N+](=O)[O-])o1)c1nc2ccccc2[nH]1`, the half-maximal activity concentration (AC50) was 16.3 µM.

For `Cc1cc(C)n(-c2ccc(C(=O)Nc3ccc(C)c(S(=O)(=O)N4CCOCC4)c3)cc2)n1`, the AC50 is 28.1 µM.

For `Cc1ccccc1OCc1n(CC(=O)OC2CC(C)CCC2C(C)C)c2ccccc2[n+]1C` (stereo unspecified), the AC50 was 15.8 µM.

On to `O=C(NCC1CCCCC1)C1(CC2CC(c3cccc(Br)c3)=NO2)CCNCC1` (stereo unspecified), for which the AC50 is 18 µM.

In the case of `COc1ccc(C(=O)/C(C#N)=N/Nc2ccc([N+](=O)[O-])cc2)cc1`, the AC50 was 18.5 µM.

Turning to `COc1ccc(-c2cc(-c3ccccc3)[n+](C)c(-c3ccccc3)c2)cc1`, the concentration at half-maximal activity (AC50) was 21.2 µM.

In the case of `CC(=O)N(C)C1=C(N2CCOCC2)C(=O)c2ccccc2C1=O`, the AC50 was 7.92 µM.

For `COc1ccc(C(=O)/C=C/C(=O)N(CC(=O)NC2CCCCC2)Cc2ccccc2OC)c(O)c1`, the AC50 is 9.67 µM.

As for `CC(C)=NOc1cc(NC(=O)CCl)cc([N+](=O)[O-])c1`, the AC50 was 17.4 µM.

In the case of `CCOC(=O)Cn1c(=NC(=O)c2ccc([N+](=O)[O-])s2)sc2ccccc21`, the AC50 is 6.03 µM.

With `O=C(Nc1ccc(Nc2ccncc2)cc1)c1ccc([N+](=O)[O-])cc1`, the AC50 is 34.3 µM.

In the case of `CCN(CC)CCCNC1=C(Cl)C(=O)c2ccccc2C1=O`, the AC50 is 5.82 µM.

On to `O=C(N/N=C\c1ccc([N+](=O)[O-])s1)c1cncc(Br)c1`, for which the AC50 is 21 µM.

Take `O=[N+]([O-])c1cccc2c(N3CCCC3)ccnc12`: the AC50 is 15.3 µM.

As to `COc1cccc2c1C(=O)C=C(C)C2=O`, the half-maximal activity concentration (AC50) was 18.8 µM.

For the compound `CN(C)CCNC(=O)/C(=C/c1ccc(-c2ccc(Cl)cc2)o1)NC(=O)c1ccccc1`, the concentration at half-maximal activity (AC50) is 20.4 µM.

Take `Cc1ccc(NC(=O)c2ccc([N+](=O)[O-])s2)cc1S(=O)(=O)N1CCOCC1`: the AC50 was 16.2 µM.

On to `COc1ccccc1NS(=O)(=O)c1cc(NC(=O)c2ccc(Cl)nc2)ccc1Cl`, for which the concentration at half-maximal activity (AC50) is 24.3 µM.

Regarding `Cc1ccc2c(c1)Oc1ccc(NC(=O)CCl)cc1C(=O)N2`, the AC50 is 9.65 µM.

With `CCOC(=O)c1c(NC(C)=O)sc2c(OCC(O)CNC(C)(C)C)c(Br)ccc12` (stereo unspecified), the AC50 was 19.1 µM.

With `CC[n+]1c(-c2ccccc2)c2cc(N)ccc2c2ccc(N)cc21`, the half-maximal activity concentration (AC50) is 15 µM.

In the case of `CCOC(=O)CCc1ccc(NC(=O)/C=C/c2ccc([N+](=O)[O-])o2)cc1`, the AC50 was 28.4 µM.

`Cc1c(OCC(=O)NC2CC(C)(C)NC(C)(C)C2)ccc2c1oc(=O)c1ccccc12`: the AC50 was 23.2 µM.

For the compound `Cc1ccc(-c2cn(-c3ccc(SC(F)F)cc3)c3[n+]2CCC3)cc1`, the AC50 is 28 µM.

Turning to `CC1CN(C(=O)CCC(=O)NCCCN2CCC(Cc3ccccc3)CC2)c2cc(Cl)ccc2O1` (stereo unspecified), the AC50 was 6.98 µM.

In the case of `CC(C)n1cc(/C=C/c2cc[n+](C)cc2)c2ccccc21`, the half-maximal activity concentration (AC50) is 23 µM.

Turning to `CCCCN1CCc2c1nc1ccc(Br)cc1c2N`, the AC50 is 25.6 µM.

Turning to `COc1cc(/C=N/N=C(N)N)ccc1OCc1ccc(Cl)cc1`, the AC50 is 18.8 µM.

With `O=C(Nc1ccc(N2CCCC2)c(Cl)c1)c1ccc([N+](=O)[O-])o1`, the AC50 is 29.9 µM.

On to `COc1ccccc1CNCC(O)Cn1c2ccccc2c2ccccc21` (stereo unspecified), for which the AC50 was 19 µM.

For the compound `O=C1Nc2ccc(Br)cc2/C1=C/C(=O)c1ccc2c(c1)OCO2`, the AC50 is 32.6 µM.

On to `O=C(N/N=C/c1ccc([N+](=O)[O-])s1)C(O)c1ccccc1` (stereo unspecified), for which the AC50 is 35.1 µM.

Consider `O=C(CCl)Nc1cccc(-c2cnc3ccccc3n2)c1`, for which the AC50 was 17.3 µM.

Consider `COc1ccc2nc(C)cc(NCc3cccc(C(F)(F)F)c3)c2c1`, for which the AC50 is 27.9 µM.

With `Nc1c2c(=O)oc(-c3ccccc3)cc2nn1-c1ccccc1`, the AC50 is 2.49 µM.

Turning to `O=C(/C=C/c1cccc([N+](=O)[O-])c1)c1cccs1`, the AC50 was 27.8 µM.

For the compound `CC(C)(c1ccccc1)c1ccc(OCC(O)CNC2CCN(Cc3ccccc3)CC2)cc1` (stereo unspecified), the concentration at half-maximal activity (AC50) is 19.9 µM.

With `O=C(CCl)N(c1ccccc1)C1CCCCC1`, the AC50 is 32.3 µM.

Consider `CCN1c2ccccc2NC2N=C(OC)C(c3ccccc3)C21` (stereo unspecified), for which the AC50 is 14 µM.

As to `COc1cc(/C=N/NC(N)=O)c(Br)cc1OCC(=O)Nc1ccccc1C`, the AC50 is 27.2 µM.

For `CCCCN(CC)CCCNC(=O)c1cc2c(=O)n(CC)c3ccccc3c2s1`, the half-maximal activity concentration (AC50) is 23.2 µM.

As for `CC(=O)N(\C=C/C=C/C=C1\Sc2ccccc2C1=O)c1ccccc1`, the AC50 was 21.2 µM.

With `N/C(=N\OC(=O)c1ccccc1Cl)c1ccccn1`, the AC50 is 28.8 µM.

Turning to `COc1ccc(-c2c[n+](CC(=O)OC3CC(C)CCC3C(C)C)c3n2CCC3)cc1` (stereo unspecified), the AC50 is 14.5 µM.

Take `Cc1ccc(C(=O)N/N=C/c2ccc([N+](=O)[O-])s2)cc1`: the AC50 is 26.7 µM.

On to `Cc1cc(NC(=O)c2cncc(Br)c2)ccc1NC(=O)c1cc2ccccc2o1`, for which the AC50 is 21.3 µM.

`CCOc1cc(/C=N/N=C(N)N)ccc1OCc1ccc(Cl)cc1`: the AC50 is 19.2 µM.

For `N=c1n(CC(=O)c2ccc(Br)s2)c2ccccc2n1Cc1ccccc1`, the AC50 was 20 µM.

For the compound `COC(=O)C1=C(C)N(Cc2ccccc2)C(=NCc2ccccc2)N[C@H]1c1ccccc1`, the AC50 was 26.8 µM.

For `O=C(CCl)Nc1cccc(S(=O)(=O)N2CCCCCC2)c1`, the AC50 is 11.2 µM.

As for `CS(=O)(=O)c1ccc(S(=O)CC(=O)OCc2ccccc2)c([N+](=O)[O-])c1` (stereo unspecified), the AC50 is 28.3 µM.

Consider `Cc1ccc(S(=O)(=O)/N=C2\C(=O)c3ccccc3C([O-])=C2n2cc[n+](CCC(C)C)c2)cc1`, for which the concentration at half-maximal activity (AC50) was 15.6 µM.

Take `O=C(N/N=C/c1ccc(O)c2ncccc12)c1cccc(Br)c1`: the AC50 was 25.7 µM.

Regarding `COC1=C(c2ccccc2)C(=O)c2ccccc2C1=O`, the AC50 is 9.91 µM.

As to `Cc1ccc(-c2nc(C(=O)NCCCN(C)C)cc3c2[nH]c2ccccc23)cc1`, the half-maximal activity concentration (AC50) is 18.8 µM.

As for `O=C(Nc1ccc(Cl)c(S(=O)(=O)N2CCOCC2)c1)c1ccc(OCC2CCCO2)cc1` (stereo unspecified), the AC50 was 9.27 µM.

In the case of `Cc1ccc2[nH]c(=O)c(CN(CCCN(C)C)C(=O)Nc3cccc(Cl)c3)cc2c1`, the AC50 is 24.3 µM.

Regarding `O=C1C(Cl)=C(Nc2ccccc2)C(=O)c2ccccc21`, the half-maximal activity concentration (AC50) is 6.7 µM.

Consider `COc1ccccc1NS(=O)(=O)c1cccc(C(=O)N/N=C/c2ccc([N+](=O)[O-])o2)c1`, for which the AC50 is 17.3 µM.

Take `COC1=C(Nc2ccc(O)cc2)C(=O)c2ccccc2C1=O`: the AC50 was 8.43 µM.

Regarding `CCN(CC)CCC(=O)N1C/C(=C/c2ccccc2)C(=O)/C(=C\c2ccccc2)C1`, the AC50 is 24 µM.

Consider `S=C=Nc1cccc(C2(N3CCCCC3)CCCCC2)c1`, for which the concentration at half-maximal activity (AC50) was 20.4 µM.

With `COc1cc(NC(=O)c2[nH]cnc2C(N)=O)cc(C(=O)Nc2cccc(C(F)(F)F)c2)c1`, the AC50 is 18.2 µM.

Take `CCOc1ccc(-n2c(-c3ccc(OC)cc3)c[n+]3c2CCCCC3)cc1`: the AC50 was 19.6 µM.

`N=c1n(Cc2ccc(Cl)cc2)c2ccccc2n1CC(O)COc1ccccc1` (stereo unspecified): the AC50 is 19.1 µM.

On to `C(#Cc1ccccc1)C[N+]1(CC#Cc2cccc3ccccc23)CCCC1`, for which the AC50 is 17.9 µM.

As to `Cc1ccccc1-c1nc(-c2ccccn2)no1`, the AC50 was 20.7 µM.

Take `Cc1ccc(NC(=O)CCl)cc1S(=O)(=O)N1CCCCCC1`: the AC50 was 28.3 µM.

Consider `CC1=CC2/C=C(\C)CCC(O)C(O)/C=C/C(=O)C23C(=O)NC(CC(C)C)C3C1C` (stereo unspecified), for which the half-maximal activity concentration (AC50) is 15.9 µM.

Regarding `CC1CCC(C(C)C)C(OC(=O)Cn2c(-c3ccc(Br)cc3)[n+](C)c3ccccc32)C1` (stereo unspecified), the AC50 was 15.2 µM.

Consider `CC(C)C(CCNC1CCN(C)CC1)c1ccc(Cl)cc1` (stereo unspecified), for which the AC50 is 23.1 µM.

As for `CN1CCC(N(C)C(=O)/C=C/c2cn(-c3ccccc3)nc2-c2cccs2)CC1`, the AC50 is 20.1 µM.

For the compound `OC(CNCC(c1ccc(Cl)cc1Cl)c1c[nH]c2ccccc12)c1ccccc1` (stereo unspecified), the AC50 is 16.8 µM.

Turning to `C=CCNC1=C(Cl)C(=O)c2ccccc2C1=O`, the AC50 is 7.68 µM.

With `COc1cc(NC(=O)c2ccc([N+](=O)[O-])o2)ccc1NC(=O)c1cccs1`, the AC50 is 20.1 µM.

Regarding `O=C1c2cc(F)ccc2-n2c1nc1ccccc1c2=O`, the AC50 is 5.5 µM.

For the compound `N#CCc1ccc(NC(=O)/C=C/c2ccc([N+](=O)[O-])o2)cc1`, the AC50 was 31.2 µM.

Turning to `O=C1Nc2cc(C(=O)NCCN3CCCCCC3)ccc2S/C1=C\c1ccccc1`, the AC50 was 19.2 µM.

For `CCN1CCN(c2ccc(S(=O)(=O)N3CCCCC3)cc2NC(=O)/C=C/c2cccc(OC)c2OC)CC1`, the AC50 was 24.7 µM.

Consider `CCN1CCN(C2=C(NS(=O)(=O)c3ccc(C)cc3)C(=O)c3ccccc3C2=O)CC1`, for which the AC50 is 21.9 µM.

`O=C1/C(=C/c2ccccc2[N+](=O)[O-])COc2ccccc21`: the AC50 is 34.1 µM.

Regarding `Cc1cc(/C=C2\Sc3ccccc3N2C)cc(C)[n+]1CC1CCCO1` (stereo unspecified), the AC50 was 10 µM.

Take `COC(=O)C1=C(C)N(Cc2ccccc2)C(=NCCc2cccnc2)N[C@H]1c1ccc(Br)cc1`: the AC50 was 19.2 µM.

Turning to `O=C(CCl)N1c2ccccc2SCC1c1ccccc1` (stereo unspecified), the AC50 was 21.3 µM.

Turning to `CC(C)Oc1ccc(C(CCNCc2ccc(O)cc2)c2ccccc2)cc1` (stereo unspecified), the AC50 is 16.5 µM.

For `CCCCCCCNC(=O)C1(CC2CC(c3ccc(Cl)cc3)=NO2)CCNCC1` (stereo unspecified), the AC50 is 18.2 µM.

Take `Cc1ccc(Cn2c(=N)n(CC(=O)c3ccc([N+](=O)[O-])cc3)c3ccccc32)cc1`: the AC50 was 21.9 µM.

Regarding `O=C(Nc1cccc(Cl)c1)Nc1cc(S(=O)(=O)N2CCCCC2)ccc1Cl`, the AC50 was 22.9 µM.

Take `CC(C)Oc1ccc(C(CCN)C2CCCCC2)cc1` (stereo unspecified): the AC50 is 16.2 µM.
